According to ChEMBL document CHEMBL1201862, “PubChem BioAssay data set” (2004):
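Grown in 96-well plates, cells were treated for 48 hours with each compound at five concentrations. Insufficient inhibition: endpoint recorded as highest concentration tested. At the GI50, growth is halved.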 Calls of active or inactive are those of the source. No stated cut-off is given here; in the data, active = GI50 up to about 1.1 µM and inactive = higher.

Experiments:
Experiment in all cases: NCI-60 cell line screen, 48 h
COLO 205 = tested on: COLO 205
DU-145 = tested on: DU-145
EKVX = tested on: EKVX
HCT-116 = tested on: HCT-116
HL-60 = tested on: HL-60
Hs-578T = tested on: Hs-578T
IGROV-1 = tested on: IGROV-1
M14 = tested on: M14
MDA-MB-231 = tested on: MDA-MB-231
NCI-H23 = tested on: NCI-H23
SF-295 = tested on: SF-295
SK-MEL-5 = tested on: SK-MEL-5
SNB-75 = tested on: SNB-75
SR = tested on: SR
SW-620 = tested on: SW-620
TK-10 = tested on: TK-10
U-251 = tested on: U-251
UACC-257 = tested on: UACC-257
UACC-62 = tested on: UACC-62
UO-31 = tested on: UO-31

Row | Compound | GI50 (COLO 205) | GI50 (DU-145) | GI50 (EKVX) | GI50 (HCT-116) | GI50 (HL-60) | GI50 (Hs-578T) | GI50 (IGROV-1) | GI50 (M14) | GI50 (MDA-MB-231) | GI50 (NCI-H23) | GI50 (SF-295) | GI50 (SK-MEL-5) | GI50 (SNB-75) | GI50 (SR) | GI50 (SW-620) | GI50 (TK-10) | GI50 (U-251) | GI50 (UACC-257) | GI50 (UACC-62) | GI50 (UO-31)
1 | Cc1c2ccc3ccccc3c2c[n+]2ccccc12 | 2.82 µM (inactive) | 11.4 µM (inactive) | 4.91 µM (inactive) | 17.1 µM (inactive) | 33.4 µM (inactive) | 2.26 µM (inactive) | 43.5 µM (inactive) | 15.8 µM (inactive) | 21.4 µM (inactive) | 4.91 µM (inactive) | 5.89 µM (inactive) | 6.79 µM (inactive) | 6.41 µM (inactive) | 2.96 µM (inactive) | 4.2 µM (inactive) | 35.7 µM (inactive) | 1.66 µM (inactive) | 7.62 µM (inactive) | 13.6 µM (inactive) | 17.5 µM (inactive)
2 | CCC1C2Cc3ccc(O)cc3C1(CC)CCN2C (stereo not given) | > 100 µM (inactive) | > 100 µM (inactive) | > 100 µM (inactive) | > 100 µM (inactive) | > 100 µM (inactive) | > 100 µM (inactive) | > 100 µM (inactive) | > 100 µM (inactive) | > 100 µM (inactive) | > 100 µM (inactive) | > 100 µM (inactive) | > 100 µM (inactive) | > 100 µM (inactive) | > 100 µM (inactive) | > 100 µM (inactive) | > 100 µM (inactive) | > 100 µM (inactive) | 77.3 µM (inactive) | > 100 µM (inactive) | > 100 µM (inactive)
3 | Oc1c(Br)c(-c2ccccc2)nc2ccccc12 | > 21.7 µM (inactive) | > 69.5 µM (inactive) | 7.85 µM (inactive) | 53.3 µM (inactive) | 12.2 µM (inactive) | > 89.1 µM (inactive) | 9.55 µM (inactive) | 47 µM (inactive) | 2.87 µM (inactive) | 22.1 µM (inactive) | 8.75 µM (inactive) | 8.15 µM (inactive) | 8.15 µM (inactive) | 29.8 µM (inactive) | 97.5 µM (inactive) | 57.8 µM (inactive) | 98.4 µM (inactive) | 36.7 µM (inactive) | 21.9 µM (inactive) | 4.71 µM (inactive)
4 | COC1=CC(=O)C2=C(C1=O)[C@H]1CC[C@]3(C)[C@@H](O)CC[C@H]3[C@@H]1CC2 | 10.7 µM (inactive) | 17.2 µM (inactive) | 16.8 µM (inactive) | 17 µM (inactive) | 13 µM (inactive) | 19.9 µM (inactive) | 21.9 µM (inactive) | 17.5 µM (inactive) | 2.21 µM (inactive) | 23.7 µM (inactive) | 16.7 µM (inactive) | 15.5 µM (inactive) | 17.9 µM (inactive) | 23.3 µM (inactive) | 32.7 µM (inactive) | 27.9 µM (inactive) | 17 µM (inactive) | 16.4 µM (inactive) | 17.5 µM (inactive) | 20.7 µM (inactive)
5 | CC(=O)OC(CCC1(C)OC1COc1ccc(CCNC(=O)C=C(C)C)cc1)C(C)(C)OC(C)=O (stereo not given) | 28.2 µM (inactive) | > 100 µM (inactive) | 16.9 µM (inactive) | 0.611 µM (active) | > 32.1 µM (inactive) | 59.3 µM (inactive) | 29.1 µM (inactive) | 16.3 µM (inactive) | > 100 µM (inactive) | 0.647 µM (active) | 0.743 µM (active) | 0.502 µM (active) | 44.4 µM (inactive) | 24.9 µM (inactive) | > 100 µM (inactive) | > 100 µM (inactive) | > 100 µM (inactive) | 0.449 µM (active) | 18.4 µM (inactive) | 48.9 µM (inactive)
6 | O=C(O)C(CCc1ccccn1)c1ccccc1 (stereo not given) | > 100 µM (inactive) | > 100 µM (inactive) | > 100 µM (inactive) | > 100 µM (inactive) | 1 µM (active) | > 100 µM (inactive) | > 100 µM (inactive) | > 100 µM (inactive) | > 100 µM (inactive) | > 100 µM (inactive) | > 100 µM (inactive) | > 100 µM (inactive) | > 100 µM (inactive) | > 100 µM (inactive) | > 100 µM (inactive) | > 100 µM (inactive) | > 100 µM (inactive) | > 100 µM (inactive) | > 100 µM (inactive) | > 100 µM (inactive)
7 | OC1CCCC1C(O)(C(F)(F)F)C(F)(F)F (stereo not given) | > 100 µM (inactive) | > 100 µM (inactive) | > 100 µM (inactive) | > 100 µM (inactive) | > 100 µM (inactive) | > 100 µM (inactive) | > 100 µM (inactive) | > 100 µM (inactive) | > 100 µM (inactive) | > 100 µM (inactive) | > 100 µM (inactive) | > 100 µM (inactive) | > 100 µM (inactive) | > 100 µM (inactive) | > 100 µM (inactive) | > 100 µM (inactive) | > 100 µM (inactive) | > 100 µM (inactive) | > 100 µM (inactive) | > 100 µM (inactive)
8 | O=C(CCN1CC2CCC(CC2)C1)c1cccs1 | 18.5 µM (inactive) | 17.6 µM (inactive) | 19.1 µM (inactive) | 19.1 µM (inactive) | 20.7 µM (inactive) | 27.3 µM (inactive) | 8.73 µM (inactive) | 16.4 µM (inactive) | 18.2 µM (inactive) | 18.4 µM (inactive) | > 100 µM (inactive) | 40.1 µM (inactive) | 19.2 µM (inactive) | 4.49 µM (inactive) | 2.79 µM (inactive) | 8.73 µM (inactive) | 18.3 µM (inactive) | 16.1 µM (inactive) | 17.7 µM (inactive) | 8.77 µM (inactive)
9 | O=C(N/C=C1\C(=O)Oc2ccccc2C1=O)Oc1ccccc1 | 41.4 µM (inactive) | 20 µM (inactive) | 27.7 µM (inactive) | 21.4 µM (inactive) | 29.9 µM (inactive) | 9.64 µM (inactive) | 20.7 µM (inactive) | 19.2 µM (inactive) | 16.7 µM (inactive) | 25.6 µM (inactive) | 30.5 µM (inactive) | 32.7 µM (inactive) | 14.3 µM (inactive) | 18 µM (inactive) | 30.8 µM (inactive) | 22.9 µM (inactive) | 23.9 µM (inactive) | 31 µM (inactive) | 20 µM (inactive) | 16.4 µM (inactive)
10 | CCc1nnc(-n2c(C)nc3cc(Cl)ccc3c2=O)s1 | 24.4 µM (inactive) | 41.6 µM (inactive) | 49.2 µM (inactive) | 26.4 µM (inactive) | 41 µM (inactive) | 28.2 µM (inactive) | 40.7 µM (inactive) | 38.7 µM (inactive) | 83 µM (inactive) | 31.6 µM (inactive) | 21.4 µM (inactive) | 21.3 µM (inactive) | 34.9 µM (inactive) | 34.5 µM (inactive) | 34.8 µM (inactive) | 40.9 µM (inactive) | 42.7 µM (inactive) | 39.4 µM (inactive) | 22.1 µM (inactive) | 31.6 µM (inactive)
11 | COc1cc(C2c3cc4c(cc3OC(NNc3ccccc3)C2C)OCO4)cc(OC)c1O (stereo not given) | 2.93 µM (inactive) | 2.62 µM (inactive) | 7.8 µM (inactive) | 1.52 µM (inactive) | 1.26 µM (inactive) | 2.83 µM (inactive) | 3.2 µM (inactive) | 0.255 µM (active) | 1.12 µM (inactive) | 5.6 µM (inactive) | 0.813 µM (active) | 1.3 µM (inactive) | 2.33 µM (inactive) | 0.207 µM (active) | 2.59 µM (inactive) | 4.63 µM (inactive) | 2.55 µM (inactive) | 1.48 µM (inactive) | 0.132 µM (active) | 1.03 µM (active)
12 | C=C(C)C(=O)O[C@@H]1C/C(C)=C\[C@H](OC(C)=O)C[C@](C)(O)/C=C2/OC(=O)C(COC(C)=O)=C21 | 0.238 µM (active) | 2.37 µM (inactive) | 0.962 µM (active) | 0.394 µM (active) | 0.013 µM (active) | 2.15 µM (inactive) | 0.834 µM (active) | 0.673 µM (active) | 0.662 µM (active) | 1.77 µM (inactive) | 6.76 µM (inactive) | 1.09 µM (active) | 3.93 µM (inactive) | 0.0423 µM (active) | 0.216 µM (active) | 1.5 µM (inactive) | 1.09 µM (active) | 1.69 µM (inactive) | 0.692 µM (active) | 1.63 µM (inactive)
13 | CC1=NC(=Cc2ccccc2O)C(=O)N1n1c(-c2ccccc2)nc2ccccc2c1=O | 34.5 µM (inactive) | 29.1 µM (inactive) | 34.9 µM (inactive) | 26.5 µM (inactive) | 35.6 µM (inactive) | 51.1 µM (inactive) | 32.1 µM (inactive) | 61.1 µM (inactive) | 33.2 µM (inactive) | 32.8 µM (inactive) | 37.3 µM (inactive) | 23.8 µM (inactive) | 34.1 µM (inactive) | 32.5 µM (inactive) | 49.1 µM (inactive) | 39.4 µM (inactive) | 38.4 µM (inactive) | 41.9 µM (inactive) | 14.3 µM (inactive) | 32.9 µM (inactive)
14 | Cc1c(C(=O)NNc2ccccc2)n2c(S)nnc2c2ccccc12 | > 100 µM (inactive) | > 100 µM (inactive) | > 100 µM (inactive) | > 100 µM (inactive) | > 100 µM (inactive) | > 100 µM (inactive) | > 100 µM (inactive) | > 100 µM (inactive) | > 100 µM (inactive) | > 100 µM (inactive) | 54.6 µM (inactive) | > 100 µM (inactive) | > 100 µM (inactive) | 74.3 µM (inactive) | > 100 µM (inactive) | > 100 µM (inactive) | > 100 µM (inactive) | > 100 µM (inactive) | > 100 µM (inactive) | 73.1 µM (inactive)
